The target in the assay is human F508del-CFTR (Homo sapiens, UniProt P13569, DEL508-508). Put plainly: F508del-CFTR cell surface expression (corrector activity), DiscoveRx ß-galactosidase complementation chemiluminescence assay in recombinant U2OS cell line.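 As to all read-outs here: U2OS cells co-expressing ProLink-tagged F508del-CFTR and a membrane-anchored enzyme acceptor, where more surface CFTR restores β-galactosidase activity measured by chemiluminescence.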 The note with it: for EC50: EC50, F508del-CFTR cell surface expression, U2OS cells, 16h compound incubation, geomean values; for Emax: U2OS, in relation to Emax of corrector lumacaftor (=100%), arithmetic mean values.

Data on five molecules can be found in patent US20240208992A1, “MACROCYCLES AS CFTR MODULATORS” (Idorsia Pharmaceuticals Ltd, priority 2021, published 2024).

human F508del-CFTR, sequence (P13569 with tags, fused parts or gaps DEL508-508): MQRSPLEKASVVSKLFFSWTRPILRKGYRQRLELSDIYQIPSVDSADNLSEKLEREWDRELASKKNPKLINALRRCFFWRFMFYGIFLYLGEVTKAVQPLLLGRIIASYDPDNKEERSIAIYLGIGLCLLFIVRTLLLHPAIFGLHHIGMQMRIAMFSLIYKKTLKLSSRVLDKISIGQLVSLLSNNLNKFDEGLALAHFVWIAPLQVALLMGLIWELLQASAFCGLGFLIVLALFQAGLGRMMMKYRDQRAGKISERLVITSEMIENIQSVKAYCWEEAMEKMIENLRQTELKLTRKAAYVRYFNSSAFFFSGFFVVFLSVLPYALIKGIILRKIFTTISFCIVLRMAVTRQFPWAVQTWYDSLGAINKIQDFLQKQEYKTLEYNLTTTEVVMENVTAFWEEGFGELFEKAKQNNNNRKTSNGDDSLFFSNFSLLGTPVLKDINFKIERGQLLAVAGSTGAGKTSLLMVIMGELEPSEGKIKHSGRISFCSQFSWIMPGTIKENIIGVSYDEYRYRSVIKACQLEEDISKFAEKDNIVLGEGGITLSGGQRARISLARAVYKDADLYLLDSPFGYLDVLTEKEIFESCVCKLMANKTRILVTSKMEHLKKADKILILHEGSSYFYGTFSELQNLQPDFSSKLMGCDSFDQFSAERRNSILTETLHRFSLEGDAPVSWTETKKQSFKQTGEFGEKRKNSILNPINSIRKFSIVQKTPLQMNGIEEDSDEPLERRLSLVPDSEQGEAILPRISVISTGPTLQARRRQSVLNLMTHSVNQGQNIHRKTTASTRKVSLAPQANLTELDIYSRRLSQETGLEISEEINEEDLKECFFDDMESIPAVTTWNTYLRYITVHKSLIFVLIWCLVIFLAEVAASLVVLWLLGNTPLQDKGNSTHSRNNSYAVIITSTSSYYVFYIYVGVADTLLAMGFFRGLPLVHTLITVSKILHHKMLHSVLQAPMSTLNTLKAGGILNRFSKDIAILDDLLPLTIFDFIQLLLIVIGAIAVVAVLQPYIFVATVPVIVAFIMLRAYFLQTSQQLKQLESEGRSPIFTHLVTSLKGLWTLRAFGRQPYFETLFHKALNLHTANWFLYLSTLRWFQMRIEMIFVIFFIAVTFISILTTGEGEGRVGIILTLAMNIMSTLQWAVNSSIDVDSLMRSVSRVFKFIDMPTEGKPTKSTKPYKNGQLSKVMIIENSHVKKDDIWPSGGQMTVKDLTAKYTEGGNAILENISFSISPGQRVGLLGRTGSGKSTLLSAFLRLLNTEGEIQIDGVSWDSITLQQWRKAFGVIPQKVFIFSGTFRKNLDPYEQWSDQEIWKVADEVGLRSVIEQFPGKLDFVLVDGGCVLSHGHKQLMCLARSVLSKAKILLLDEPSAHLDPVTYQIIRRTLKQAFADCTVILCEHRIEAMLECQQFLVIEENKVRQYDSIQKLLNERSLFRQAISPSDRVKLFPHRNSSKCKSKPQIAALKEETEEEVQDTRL

Take `COc1cc(CCNC(=O)[C@@H]2CC(=O)N(C)[C@@H](CC(C)C)C(=O)N(C)[C@H](CC(F)(F)F)C(=O)N[C@H](Cc3ccccc3)COc3cc(C)nc(OC)c3C(=O)N2)on1` [Example 791, (3R,6R,9S,13S)-3-benzyl-9-isobutyl-16-methoxy-N-(2-(3-methoxyisoxazol-5-yl)ethyl)-7,10,18-trimethyl-5,8,11,15-tetraoxo-6-(2,2,2-trifluoroethyl)-2,3,4,5,6,7,8,9,10,11,12,13,14,15-tetradecahydropyrido[3,4-p][1]oxa[4,7,10,14]tetraazacycloheptadecine-13-carboxamide]: the EC50 is 80 nM and the maximum response (Emax) was determined as 345%.

On to `COc1cc(CCNC(=O)[C@@H]2CC(=O)N(C)[C@@H](CC(C)C)C(=O)N(C)[C@@H](CC(F)(F)F)C(=O)N[C@H](Cc3ccccc3)COc3cc(C)nc(OC)c3C(=O)N2)on1` [Example 792, (3R,6S,9S,13S)-3-benzyl-9-isobutyl-16-methoxy-N-(2-(3-methoxyisoxazol-5-yl)ethyl)-7,10,18-trimethyl-5,8,11,15-tetraoxo-6-(2,2,2-trifluoroethyl)-2,3,4,5,6,7,8,9,10,11,12,13,14,15-tetradecahydropyrido[3,4-p][1]oxa[4,7,10,14]tetraazacycloheptadecine-13-carboxamide], for which the EC50 was 628 nM and the Emax came to 261%.

Regarding `CC(C)C[C@H]1C(=O)N2CCCC[C@H]2C(=O)N[C@H](Cc2ccccc2)COc2ccc3ncc(F)cc3c2C(=O)N[C@H](C(=O)NCCc2noc(C3CC3)n2)CC(=O)N1C` [Example 793, (9S,13S,19aS,22R)-22-benzyl-N-(2-(5-cyclopropyl-1,2,4-oxadiazol-3-yl)ethyl)-5-fluoro-13-isobutyl-12-methyl-7,11,14,20-tetraoxo-7,8,9,10,11,12,13,14,17,18,19,19a,20,21,22,23-hexadecahydro-16H-pyrido[2′,11:6,7][1]oxa[4,7,10,14]tetraazacycloheptadecino[16,17-f]quinoline-9-carboxamide], the EC50 is 235 nM and the Emax amounted to 105%.

With `CC(C)C[C@H]1C(=O)N(C)[C@H](Cc2nc(-c3ccc(F)cn3)no2)C(=O)N[C@H](Cc2ccccc2)COc2ccc3ncc(F)cc3c2C(=O)N[C@H](C(=O)NCCc2noc(C3CC3)n2)CC(=O)N1C` [Example 794, (3S,7S,10R,13R)-13-benzyl-N-(2-(5-cyclopropyl-1,2,4-oxadiazol-3-yl)ethyl)-20-fluoro-10-((3-(5-fluoropyridin-2-yl)-1,2,4-oxadiazol-5-yl)methyl)-7-isobutyl-6,9-dimethyl-1,5,8,11-tetraoxo-1,2,3,4,5,6,7,8,9,10,11,12,13,14-tetradecahydro-[1]oxa[4,7,10,14]tetraazacycloheptadecino[16,17-f]quinoline-3-carboxamide], the 50% effective concentration (EC50) was 83 nM and the Emax turned out to be 354%.

Regarding `COc1cc(CCNC(=O)[C@@H]2CC(=O)N(C)[C@@H](CC(C)C)C(=O)N(C)[C@H](Cc3nc(-c4ccc(F)cn4)no3)C(=O)N[C@H](Cc3ccccc3)COc3ccc4ncc(F)cc4c3C(=O)N2)on1` [Example 795, (3S,7S,10R,13R)-13-benzyl-20-fluoro-10-((3-(5-fluoropyridin-2-yl)-1,2,4-oxadiazol-5-yl)methyl)-7-isobutyl-N-(2-(3-methoxyisoxazol-5-yl)ethyl)-6,9-dimethyl-1,5,8,11-tetraoxo-1,2,3,4,5,6,7,8,9,10,11,12,13,14-tetradecahydro-[1]oxa[4,7,10,14]tetraazacycloheptadecino[16,17-f]quinoline-3-carboxamide], the EC50 worked out at 141 nM and the Emax was found to be 384%.

One may read the EC50 as the concentration at which the effect is half-maximal. What is called Emax is the greatest response seen or fitted, relative to the assay's reference.
